{"source": "patent US20240285680A1", "about": "“METHOD OF TREATING ALZHEIMER'S DISEASE” (Vector Vitale IP LLC, priority 2021, published 2024)", "key": {"[1]": {"test": "Body weight changes in rat models of Aβ1-40-induced AD", "format": "in vivo", "details": "Aβ1-40 AD rats, treated group; baseline before the operation", "source_text": "Male Wistar rats (300-500 g) were used. The animals were maintained under standard conditions in the vivarium of the ESC “Institute of Biology and Medicine” of Taras Shevchenko National University of Kyiv. They were given ad libitum access to food and water.\nAlzheimer's Disease was induced in old male rats (14 months old) by giving them intrahippocampal injections of aggregated Amyloid Beta (Aβ 1-40) Peptide (human) (Cayman Chemical Company) and Amyloid Beta (Aβ 25-35) Peptide (human) (Tocris Bioscience, Brostol). Aβ1-40 and Aβ 25-35 were dissolved in bidistilled water to the concentration of 15 μmol/L and incubated at 37° C. for 24 hours for aggregation. Aβ conglomerates were broken up by ultrasound and sterilized immediately prior to injection.\nRats were anesthetized using a mixture of ketamine (75 mg/kg, diluted in sterile water for injection, Sigma, USA) and 2% xylazine (100 μl/rat, Alfasan International B.V., Netherlands) administered intraperitoneally in a total volume of 1 ml. A rat was placed in a stereotaxic apparatus (SEZH-4) modified for rats. The animal was then scalped from the point of intersection of the sagittal suture with bregma (zero point): 2 mm distally, 2 mm laterally and 3.5 mm in depth and a trephine opening was made with an injection needle, directly into the hippocampus. […]"}, "[2]": {"test_system": "tyrosine hydroxylase (TH)", "test": "Immunohistochemical identification of tyrosine hydroxylase in hippocampus, Aβ1-40-induced AD rats", "format": "in vivo, rat", "details": "Aβ1-40 AD rats; TH-positive hippocampal cells; individual animals 661 E, F, G; listed as Zn", "procedure": "(§1) Degeneration of the hippocampal neurons was assessed using immunohistochemical analysis for the expression level of tyrosine hydroxylase (TH). Immunohistochemical staining was performed using primary anti-TH antibodies at a 1:200 dilution (Millipore, AB152). Endogenous peroxidase activity was blocked with a blocking reagent (Dako, EnVision Flex, DM821). Nonspecific antibody binding was blocked using 4% dry milk dissolved in Tris-buffered saline (TBS) containing 0.2% Triton X-100.\n(§2) The primary antibody was diluted in TBS containing 0.2% Triton X-100 and applied to tissue sections. The sections were then incubated overnight (+4° C.). Secondary antibodies (anti-rabbit biotinylated antibodies, 1:200) were incubated for 60 minutes. The immunoreaction was developed using diaminobenzidine (Dako, EnVision) applied for 5 minutes. The results of immunohistochemical staining were evaluated at the light-optical level using a Zeiss Primo Star microscope. The intensity of TH-positive staining was evaluated using a semiquantitative scoring system as described in the Quantitative Scoring Method ([http://www.ihcworld.com/ihc_scoring.htm]) taking into account the number of positive (stained) cells and the intensity of staining (Table 1). The results were presented as a quick score (Q) calculated by the following formula: Q=P×I, where P is the percentage of positive cells and I is the staining intensity."}, "CD86": {"test_system": "CD86", "test": "CD86 expression in circulating phagocytes, Aβ25-35 model", "format": "in vivo, rat", "details": "Aβ25-35 AD rats", "description": "The phenotypic profile of phagocytes of various localization was characterized by the expression of markers of functional maturity and metabolic polarization (CD206 and CD86), which was determined by flow cytometry and the use of monoclonal antibodies of appropriate specificity marked with fluorescent dyes (Abcam, Becton Dickinson)."}, "[3]": {"test_system": "rat models of Aβ1-40-induced Alzheimer's disease", "test": "Barnes maze memory and cognitive flexibility tests, Aβ1-40-induced AD rats", "format": "in vivo", "details": "Aβ1-40 model; for Time spent near the entrance to the “escape box”, after surgery / Time spent near the entrance to the “escape box”, % of changes / Time spent near the entrance to the “escape box”, before surgery: cognitive flexibility; for Time spent near the entrance to the “escape box”, after surgery / Time spent to find the “escape box”, after surgery: after surgery and treatment; for Time spent near the entrance to the “escape box”, after surgery / Time spent near the entrance to the “escape box”, before surgery / Time spent to find the “escape box”, after surgery / Time spent to find the “escape box”, before surgery: M ± SD; for Time spent near the entrance to the “escape box”, % of changes / Time spent to find the “escape box”, % of changes: after vs before surgery; for Time spent near the entrance to the “escape box”, before surgery / Time spent to find the “escape box”, before surgery: baseline before surgery", "procedure": "Kinga Gawel et al., Assessment of spatial learning and memory in the Barnes maze task in rodents-methodological consideration, Naunyn Schmiedebergs Arch Pharmacol. 2019; 392(1): 1-18. doi: 10.1007/s00210-018-1589-y.\nThe other holes remained open.\nThe rat was allowed to move freely around the table for 2-3 minutes.\nFifteen minutes after the habituation session, on the 2nd, 3rd and 4th days of the experiment, the task training was repeated 4 times every 15 minutes (min) (3 min on the table surface+1 min in the “escape box” with the light off).\nThe table surface was disinfected after each trial.\n18 days after the operation, the animals had another 4-day training session (probe phase) with a changed location of the “escape box”.\nThe following time periods were measured in seconds: 1) the time the animal spent to find the entrance to the “escape box” (assessment of spatial learning and spatial memory associated with the hippocampal function); 2) the time the animal spent near the entrance (assessment of cognitive flexibility associated with the function of the frontal cortex of the brain)—the less time the animal spends near the closed entrance, the quicker it understands that it is necessary to look for escape elsewhere."}, "[4]": {"test_system": "tyrosine hydroxylase (TH)", "test": "Immunohistochemical identification of tyrosine hydroxylase in hippocampus, Aβ25-35-induced AD rats", "format": "in vivo, rat", "details": "Aβ25-35 AD rats", "procedure": "as §1, §2"}, "[5]": {"test_system": "rat models of Aβ25-35-induced Alzheimer's disease", "test": "Barnes maze memory and cognitive flexibility tests, Aβ25-35-induced AD rats", "details": "for Time spent near the entrance to the “escape box”, after surgery / Time spent near the entrance to the “escape box”, % of changes / Time spent near the entrance to the “escape box”, before surgery / Time spent to find the “escape box”, after surgery / Time spent to find the “escape box”, % of changes / Time spent to find the “escape box”, before surgery: Aβ25-35 model; for Time spent near the entrance to the “escape box”, after surgery / Time spent near the entrance to the “escape box”, % of changes / Time spent near the entrance to the “escape box”, before surgery: cognitive flexibility; for Time spent near the entrance to the “escape box”, after surgery / Time spent to find the “escape box”, after surgery: after surgery and treatment; for Time spent near the entrance to the “escape box”, after surgery / Time spent near the entrance to the “escape box”, before surgery / Time spent to find the “escape box”, after surgery / Time spent to find the “escape box”, before surgery: M ± SD; for Time spent near the entrance to the “escape box”, % of changes / Time spent to find the “escape box”, % of changes: after vs before surgery; for Time spent near the entrance to the “escape box”, before surgery / Time spent to find the “escape box”, before surgery: baseline before surgery", "excerpt": "An animal learns to remember the location of the target zone (“escape box”) using peripheral visual cues in the testing area as reference points.\nBarnes maze used consisted of a circular table with 16 circular holes around its circumference. Peripheral visual cues, such as black marks (a triangle on one wall and two parallel strips on the opposite wall), were placed for better orientation of the animal. Under one of the holes an “escape box” containing standard filler for animals was fixed. Each animal was assigned its number of the hole to which the “escape box” was fixed. The other holes remained open. Before performing the probe phase (after the operation), the number of the hole was changed.\nOn the 1st day of the experiment, during the first training of rats, a habituation session was performed, which was not repeated during the probe phase. A rat was placed in the center of the circular table and kept under a non-transparent hood for 10 seconds. The light above the table was then turned on and the hood lifted. The rat was allowed to move freely around the table for 2-3 minutes.\nFifteen minutes after the habituation session, on the 2nd, 3rd and 4th days of the experiment, the task training was repeated 4 times every 15 minutes (min) (3 min on the table surface+1 min in the “escape box” with the light off). The time during which the animal managed to reach the “escape box” was recorded at each trial.\nShort-term memory of the animals was tested on the 5th day, and long-term memory was tested on the 9th day (5th day after the last training). All the holes of the maze were closed, and the rat was allowed to freely explore the open arena for 90 seconds to find “its” corresponding hole on the table top (under which the “escape box” was previously located) based on previously acquired skills. The amount of time the animal spent searching for the correct hole, and the time it spent near the hole was recorded. The table surface was disinfected after each trial.\n18 days after the operation, the animals had another 4-day training session (probe phase) with a changed location of the “escape box”. As in the case before the operation, short-term memory was tested on the 5th day, and long-term memory was tested on the 9th day (5th day after the last training session)."}, "[6]": {"details": "long-term memory, 5 days following training"}, "[7]": {"details": "short-term memory, 24 hours following training"}}, "note": "Where “and” joins values, the source holds several entries; their conditions need not be identical. Equal values may be shown once.", "data": [{"substance": "^64Zn-aspartate", "values": [{"measurement": "body weight before the operation", "setting": "[1]", "value": "432.1 ± 29.7", "unit": "g"}, {"measurement": "Q = P × I", "setting": "[2]", "value": "4 and 2 and 6"}, {"measurement": "expression of CD86 by circulating phagocytes", "setting": "CD86", "value": "elevated"}, {"measurement": "fraction of CD86+ cells among circulating phagocytes", "setting": "CD86", "value": "increase"}, {"measurement": "Time spent near the entrance to the “escape box”, after surgery", "setting": "[3]; 24 hours following training", "value": "22.57 ± 7.77", "unit": "s"}, {"measurement": "Time spent near the entrance to the “escape box”, % of changes", "setting": "[3]; 24 hours following training", "value": "−31.6", "unit": "%"}, {"measurement": "Time spent near the entrance to the “escape box”, before surgery", "setting": "[3]; 24 hours following training", "value": "33 ± 7.39", "unit": "s"}, {"measurement": "Time spent near the entrance to the “escape box”, after surgery", "setting": "[3]; 5 days following training", "value": "29 ± 6.14", "unit": "s"}, {"measurement": "Time spent near the entrance to the “escape box”, % of changes", "setting": "[3]; 5 days following training", "value": 23.03, "unit": "%"}, {"measurement": "Time spent near the entrance to the “escape box”, before surgery", "setting": "[3]; 5 days following training", "value": "23.57 ± 6.61", "unit": "s"}, {"measurement": "Time spent to find the “escape box”, after surgery", "setting": "[3]; [6]", "value": "5 ± 1.54", "unit": "s"}, {"measurement": "Time spent to find the “escape box”, % of changes", "setting": "[3]; [6]", "value": "−70.59", "unit": "%"}, {"measurement": "Time spent to find the “escape box”, before surgery", "setting": "[3]; [6]", "value": "17 ± 6.74", "unit": "s"}, {"measurement": "Time spent to find the “escape box”, after surgery", "setting": "[3]; [7]", "value": "4.14 ± 0.74", "unit": "s"}, {"measurement": "Time spent to find the “escape box”, % of changes", "setting": "[3]; [7]", "value": "−42.04", "unit": "%"}, {"measurement": "Time spent to find the “escape box”, before surgery", "setting": "[3]; [7]", "value": "7.14 ± 1.49", "unit": "s"}, {"measurement": "Q = P × I", "setting": "[4]; TH-positive hippocampal cells, individual animals 663 A, B, listed as Zn", "value": "6 and 4"}, {"measurement": "staining intensity of TH-positive cells", "setting": "[4]; hippocampus", "value": "no effect"}, {"measurement": "tyrosine hydroxylase expression, Q value (group mean)", "setting": "[4]; hippocampus", "value": "5.0±1.4"}, {"measurement": "tendency towards impairment of long-term memory", "setting": "[5]; Aβ25-35 AD rats", "value": "not improved"}, {"measurement": "Time spent near the entrance to the “escape box”, after surgery", "setting": "[5]; 24 hours following training", "value": "30.67 ± 7.32", "unit": "s"}, {"measurement": "Time spent near the entrance to the “escape box”, % of changes", "setting": "[5]; 24 hours following training", "value": 12.2, "unit": "%"}, {"measurement": "Time spent near the entrance to the “escape box”, before surgery", "setting": "[5]; 24 hours following training", "value": "27.33 ± 4.06", "unit": "s"}, {"measurement": "Time spent near the entrance to the “escape box”, after surgery", "setting": "[5]; 5 days following training", "value": "18.17 ± 5.38", "unit": "s"}, {"measurement": "Time spent near the entrance to the “escape box”, % of changes", "setting": "[5]; 5 days following training", "value": "−40.76", "unit": "%"}, {"measurement": "Time spent near the entrance to the “escape box”, before surgery", "setting": "[5]; 5 days following training", "value": "30.67 ± 4.32", "unit": "s"}, {"measurement": "Time spent to find the “escape box”, after surgery", "setting": "[5]; [6]", "value": "21.83 ± 12.53", "unit": "s"}, {"measurement": "Time spent to find the “escape box”, % of changes", "setting": "[5]; [6]", "value": 48.86, "unit": "%"}, {"measurement": "Time spent to find the “escape box”, before surgery", "setting": "[5]; [6]", "value": "14.67 ± 3.53", "unit": "s"}, {"measurement": "Time spent to find the “escape box”, after surgery", "setting": "[5]; [7]", "value": "8.33 ± 5.76", "unit": "s"}, {"measurement": "Time spent to find the “escape box”, % of changes", "setting": "[5]; [7]", "value": "−37.5", "unit": "%"}, {"measurement": "Time spent to find the “escape box”, before surgery", "setting": "[5]; [7]", "value": "13.33 ± 7.8", "unit": "s"}]}]}
